Source: patent publication US11608323B2 (SYNGENTA LIMITED, priority 2013, dated 2023)

How the values were obtained:
Assay type in all cases: in vivo
[1] = system: ECHCG; assay: Post-emergence herbicidal activity, glasshouse pot test; settings: Echinochloa crus-galli; application post-emergence; rate 1000 g/Ha; evaluated after 13 days
Protocol: (§1) Seeds of a variety of test species were sown in standard soil in pots. After 8 days cultivation (post-emergence) under controlled conditions in a glasshouse (at 24/16° C., day/night; 14 hours light; 65% humidity), the plants were sprayed with an aqueous spray solution derived from the formulation of the technical active ingredient in acetone/water (50:50) solution containing 0.5% Tween 20 (polyoxyethelyene sorbitan monolaurate, CAS RN 9005-64-5). The test plants were then grown in a glasshouse under controlled conditions (at 24/16° C., day/night; 14 hours light; 65% humidity) and watered twice daily. After 13 days, the test was evaluated (5=total damage to plant; 0=no damage to plant).

[2] = system: AMARE; assay: as above; settings: Amaranthus retroflexus; application post-emergence; rate 1000 g/Ha; evaluated after 13 days
Protocol: as §1

[3] = system: ABUTH; assay: as above; settings: Abutilon theophrasti; application post-emergence; rate 1000 g/Ha; evaluated after 13 days
Protocol: as §1

[4] = system: SETFA; assay: as above; settings: Setaria faberi; application post-emergence; rate 1000 g/Ha; evaluated after 13 days
Protocol: as §1

[5] = system: ZEAMX; assay: as above; settings: Zea mays; application post-emergence; rate 1000 g/Ha; evaluated after 13 days
Protocol: as §1

[6] = system: ECHCG; assay: Pre-emergence herbicidal activity, glasshouse pot test; settings: rate 1000 g/Ha, evaluated after 13 days, scale 0-5
Protocol: as §1, with “After” for “After 8 days”, “for one day (pre-emergence)” for “(post-emergence)”

[7] = system: AMARE; assay: as above; settings: rate 1000 g/Ha, evaluated after 13 days, scale 0-5
Protocol: as §1, with “After” for “After 8 days”, “for one day (pre-emergence)” for “(post-emergence)”

[8] = system: ABUTH; assay: as above; settings: rate 1000 g/Ha, evaluated after 13 days, scale 0-5
Protocol: as §1, with “After” for “After 8 days”, “for one day (pre-emergence)” for “(post-emergence)”

[9] = system: SETFA; assay: as above; settings: rate 1000 g/Ha, evaluated after 13 days, scale 0-5
Protocol: as §1, with “After” for “After 8 days”, “for one day (pre-emergence)” for “(post-emergence)”

[10] = system: ZEAMX; assay: as above; settings: rate 1000 g/Ha, evaluated after 13 days, scale 0-5
Protocol: as §1, with “After” for “After 8 days”, “for one day (pre-emergence)” for “(post-emergence)”

SMILES | Post-emergence herbicidal activity ECHCG (damage score 0-5) [1] | Post-emergence herbicidal activity AMARE (damage score 0-5) [2] | Post-emergence herbicidal activity ABUTH (damage score 0-5) [3] | Post-emergence herbicidal activity SETFA (damage score 0-5) [4] | Post-emergence herbicidal activity ZEAMX (damage score 0-5) [5] | ECHCG damage score, application pre-emergence [6] | AMARE damage score, application pre-emergence [7] | ABUTH damage score, application pre-emergence [8] | SETFA damage score, application pre-emergence [9] | ZEAMX damage score, application pre-emergence [10]
CN1C(=O)N(c2ccc(C(F)(F)F)cn2)C(O)C1O (stereo not drawn) [Compound A81] | 2 | 4 | 4 | 2 | 0 | 0 | 3 | 2 | 2 | 0
CCOC1C(O)N(c2cc(C(F)(F)C(F)(F)F)ccn2)C(=O)N1C (stereo not drawn) [Compound A82] | 4 | 5 | 5 | 4 | 2 | 3 | 5 | 5 | 3 | 2
CCOC1C(O)N(c2ccc(C(F)(F)F)cn2)C(=O)N1C (stereo not drawn) [Compound A83] | 1 | 5 | 5 | 4 | 1 | 4 | 5 | 5 | 4 | 1
CC1C(O)N(c2cc(C(F)F)ccn2)C(=O)N1C (stereo not drawn) [Compound A84] | 5 | 5 | 5 | 5 | 4 | 5 | 5 | 5 | 5 | 3
CC1C(O)N(c2cc(C(F)(F)Cl)ccn2)C(=O)N1C (stereo not drawn) [Compound A85] | 5 | 5 | 5 | 5 | 4 | 5 | 5 | 5 | 5 | 3
CC1C(O)N(c2cc(C(F)F)c(Cl)cn2)C(=O)N1C (stereo not drawn) [Compound A86] | 5 | 5 | 5 | 5 | 2 | 5 | 5 | 5 | 5 | 3
C#CCN1C(=O)N(c2cc(C(F)(F)F)ccn2)C(O)C1C (stereo not drawn) [Compound A87] | 5 | 5 | 5 | 5 | 4 | 4 | 5 | 5 | 4 | 3
CCN1C(=O)N(c2cc(C(F)(F)F)ccn2)C(O)C1C (stereo not drawn) [Compound A88] | 5 | 5 | 5 | 5 | 3 | 4 | 5 | 5 | 4 | 2
COC(C)(C)c1ccnc(N2C(=O)N(C)C(C)C2O)c1 (stereo not drawn) [Compound A89] | 5 | 5 | 5 | 5 | 3 | 4 | 5 | 5 | 4 | 2
CON1C(=O)N(c2cc(C(F)(F)Cl)ccn2)C(O)[C@@H]1C (stereo partly drawn) [Compound A90] | 5 | 5 | 5 | 5 | 5 | 4 | 5 | 3 | 4 | 2
CC1NC(=O)N(c2cc(C(F)(F)Cl)ccn2)C1O (stereo not drawn) [Compound A91] | 5 | 5 | 5 | 4 | 3 | 4 | 5 | 5 | 4 | 2
CC1C(O)N(c2cc(Cl)ccn2)C(=O)N1C (stereo not drawn) [Compound A92] | 5 | 5 | 5 | 5 | 4 | 5 | 5 | 5 | 4 | 3
